In patent publication US10280169B2, “Biaryl bruton's tyrosine kinase inhibitors” (BIOGEN MA INC., priority 2013, dated 2019):
Counter-ions that a name gives are not always drawn.

Each molecule was assayed against T1, BTK (Homo sapiens, UniProt Q06187) (assay: In vitro BTK kinase assay: BTK-POLYGAT-LS assay). Settings: 10 uM ATP, read-out: IC50 (10 uMATP).
T1 construct: purchased Upstate 14-552
Assay type: biochemical

T1 sequence (Q06187 whole entry): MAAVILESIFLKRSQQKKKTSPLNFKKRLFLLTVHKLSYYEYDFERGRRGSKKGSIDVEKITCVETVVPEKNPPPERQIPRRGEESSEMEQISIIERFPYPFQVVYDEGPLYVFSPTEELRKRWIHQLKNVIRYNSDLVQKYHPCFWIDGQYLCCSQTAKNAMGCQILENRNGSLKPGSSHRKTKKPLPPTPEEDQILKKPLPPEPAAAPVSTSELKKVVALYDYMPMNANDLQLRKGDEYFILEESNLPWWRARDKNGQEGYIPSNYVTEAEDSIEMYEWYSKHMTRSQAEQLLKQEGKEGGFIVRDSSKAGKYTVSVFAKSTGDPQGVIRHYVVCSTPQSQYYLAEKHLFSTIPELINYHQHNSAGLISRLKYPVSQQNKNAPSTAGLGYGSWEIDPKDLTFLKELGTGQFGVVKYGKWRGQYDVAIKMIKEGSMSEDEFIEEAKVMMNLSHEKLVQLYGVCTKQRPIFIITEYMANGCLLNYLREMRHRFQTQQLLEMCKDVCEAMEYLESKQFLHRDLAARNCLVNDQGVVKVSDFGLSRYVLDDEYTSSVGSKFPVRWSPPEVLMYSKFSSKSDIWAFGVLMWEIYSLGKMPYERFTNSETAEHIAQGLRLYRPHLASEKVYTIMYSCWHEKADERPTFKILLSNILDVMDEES

Structure (SMILES)	IC50 [nM]
O=C(NCc1ccc(-c2ncnc3[nH]ccc23)cc1)c1cn2c(n1)CCCC2 [Example I-64, N-(4-(7H-pyrrolo[2,3-d]pyrimidin-4-yl)benzyl)-5,6,7,8-tetrahydroimidazo[1,2-a]pyridine-2-carboxamide]	> 10000
O=C(NCc1ccc(-c2ncnc3[nH]ccc23)cc1)c1cc2c(s1)CCCC2 [Example I-65, N-(4-(7H-pyrrolo[2,3-d]pyrimidin-4-yl)benzyl)-4,5,6,7-tetrahydrobenzo[b]thiophene-2-carboxamide]	10 to 99
O=C(NCc1ccc(-c2ncnc3[nH]ccc23)cc1)c1ccc(C(F)(F)F)cc1 [Example I-66, N-(4-(7H-pyrrolo[2,3-d]pyrimidin-4-yl)benzyl)-4-(trifluoromethyl)benzamide]	100 to 999
CC(C)(C)c1ccc(C(=O)NCc2ccc(-c3ncnc4[nH]ccc34)cc2)cn1 [Example I-67, N-(4-(7H-pyrrolo[2,3-d]pyrimidin-4-yl)benzyl)-6-(tert-butyl)nicotinamide]	100 to 999
CC(C)(C)c1ccc(C(=O)NCc2ccc(-c3ncnc4[nH]ccc34)cc2)nc1 [Example I-68, N-(4-(7H-pyrrolo[2,3-d]pyrimidin-4-yl)benzyl)-5-(tert-butyl)picolinamide]	100 to 999
O=C(NCc1ccc(-c2ncnc3[nH]ccc23)cc1)N1Cc2ccccc2C1 [Example I-69, N-(4-(7H-pyrrolo[2,3-d]pyrimidin-4-yl)benzyl)isoindoline-2-carboxamide]	10 to 99
CC(C)(C)c1ccc(C(=O)NCc2ccc(-c3ncnc4[nH]ccc34)cn2)nc1 [Example I-70]	100 to 999
O=C(NCc1ccc(-c2ncnc3[nH]ccc23)cn1)c1cc2c(s1)CCCC2 [Example I-71, N-((5-(7H-pyrrolo[2,3-d]pyrimidin-4-yl)pyridin-2-yl)methyl)-4,5,6,7-tetrahydrobenzo[b]thiophene-2-carboxamide]	10 to 99
CC(C)(C)c1ccc(C(=O)NCc2ccc(-c3ccnc4[nH]ccc34)nc2)nc1 [Example I-72, N-((6-(1H-pyrrolo[2,3-b]pyridin-4-yl)pyridin-3-yl)methyl)-5-(tert-butyl)picolinamide]	100 to 999
O=C(NCc1ccc(-c2ccnc3[nH]ccc23)nc1)c1cc2c(s1)CCCC2 [Example I-73, N-((6-(1H-pyrrolo[2,3-b]pyridin-4-yl)pyridin-3-yl)methyl)-4,5,6,7-tetrahydrobenzo[b]thiophene-2-carboxamide]	10 to 99
C[C@@H](NC(=O)c1nc2c(s1)CCCC2)c1ccc(-c2ncnc3[nH]ccc23)cc1 [Example I-74, (R)—N-(1-(4-(7H-pyrrolo[2,3-d]pyrimidin-4-yl)phenyl)ethyl)-4,5,6,7-tetrahydrobenzo[d]thiazole-2-carboxamide]	100 to 999
C[C@H](NC(=O)c1nc2c(s1)CCCC2)c1ccc(-c2ncnc3[nH]ccc23)cc1 [Example I-75, (S)—N-(1-(4-(7H-pyrrolo[2,3-d]pyrimidin-4-yl)phenyl)ethyl)-4,5,6,7-tetrahydrobenzo[d]thiazole-2-carboxamide]	1000 to 10000
Cc1cc(-c2ncnc3[nH]c(-c4cnn5c4CNCC5)cc23)ccc1CNC(=O)c1cnc(C(C)(C)C)s1 [Example I-76, 2-(tert-butyl)-N-(2-methyl-4-(6-(4,5,6,7-tetrahydropyrazolo[1,5-a]pyrazin-3-yl)-7H-pyrrolo[2,3-d]pyrimidin-4-yl)benzyl)thiazole-5-carboxamide hydrochloride]	< 10
Cc1cc(-c2ncnc3[nH]ccc23)ccc1C(C)NC(=O)c1nc2c(s1)CCCC2 (centres unmarked) [Example I-77, N-(1-(2-methyl-4-(7H-pyrrolo[2,3-d]pyrimidin-4-yl)phenyl)ethyl)-4,5,6,7-tetrahydrobenzo[d]thiazole-2-carboxamide]	< 10
CC(NC(=O)c1nc2c(s1)CCCC2)c1ccc(-c2ncnc3[nH]ccc23)cc1C(F)(F)F (centres unmarked) [Example I-79, N-(1-(4-(7H-pyrrolo[2,3-d]pyrimidin-4-yl)-2-(trifluoromethyl)phenyl)ethyl)-4,5,6,7-tetrahydrobenzo[d]thiazole-2-carboxamide]	10 to 99
CC(NC(=O)c1cc2c(s1)CCCC2)c1ccc(-c2ncnc3[nH]ccc23)cc1C(F)(F)F (centres unmarked) [Example I-80, N-(1-(4-(7H-pyrrolo[2,3-d]pyrimidin-4-yl)-2-(trifluoromethyl)phenyl)ethyl)-4,5,6,7-tetrahydrobenzo[b]thiophene-2-carboxamide]	10 to 99
O=C(N[C@@H]1CCCc2cc(-c3ncnc4[nH]ccc34)ccc21)c1cc2c(s1)CCCC2 [Example I-81, (R)—N-(6-(7H-Pyrrolo[2,3-d]pyrimidin-4-yl)-1,2,3,4-tetrahydronaphthalen-1-yl)-4,5,6,7-tetrahydrobenzo[b]thiophene-2-carboxamide]	100 to 999
CC(C)(C)c1ccc(C(=O)NC2COCc3cc(-c4ncnc5[nH]ccc45)ccc32)nc1 (centres unmarked) [Example I-82, N-(7-(7H-pyrrolo[2,3-d]pyrimidin-4-yl)isochroman-4-yl)-5-(tert-butyl)picolinamide]	100 to 999
CC(C)(C)c1ccc(C(=O)NC2COCc3cc(-c4ncnc5[nH]ccc45)ccc32)cc1 (centres unmarked) [Example I-83, N-(7-(7H-pyrrolo[2,3-d]pyrimidin-4-yl)isochroman-4-yl)-4-(tert-butyl)benzamide]	1000 to 10000
CC(C)(C)c1ccc(C(=O)NCc2ccc(-c3ncnc4[nH]ncc34)cc2)cc1 [Example I-84, N-(4-(1H-pyrazolo[3,4-d]pyrimidin-4-yl)benzyl)-4-(tert-butyl)benzamide]	100 to 999
O=C(N[C@@H]1CCCc2cc(-c3ncnc4[nH]ncc34)ccc21)c1cc2c(s1)CCCC2 [Example I-86, (R)—N-(6-(1H-Pyrazolo[3,4-d]pyrimidin-4-yl)-1,2,3,4-tetrahydronaphthalen-1-yl)-4,5,6,7-tetrahydrobenzo[b]thiophene-2-carboxamide]	10 to 99
CC(C)(C)c1ccc(C(=O)NC2CCCc3cc(-c4ncnc5[nH]ncc45)ccc32)cc1 (centres unmarked) [Example I-88, N-(6-(1H-pyrazolo[3,4-d]pyrimidin-4-yl)-1,2,3,4-tetrahydronaphthalen-1-yl)-4-(tert-butyl)benzamide]	10 to 99
O=C(NC1CCCc2cc(-c3ncnc4[nH]ncc34)ccc21)c1ccc(Cl)c(F)c1 (centres unmarked) [Example I-90, N-(6-(1H-pyrazolo[3,4-d]pyrimidin-4-yl)-1,2,3,4-tetrahydronaphthalen-1-yl)-4-chloro-3-fluorobenzamide]	100 to 999

Second part, the molecule after the results:

IC50 [nM]	Structure (SMILES)
10 to 99	O=C(NC1CCCc2cc(-c3ncnc4[nH]ncc34)ccc21)c1ccc(C(F)(F)F)c(F)c1 (centres unmarked) [Example I-91, N-(6-(1H-pyrazolo[3,4-d]pyrimidin-4-yl)-1,2,3,4-tetrahydronaphthalen-1-yl)-3-fluoro-4-(trifluoromethyl)benzamide]
100 to 999	O=C(NC1CCCc2cc(-c3ncnc4[nH]ncc34)ccc21)c1ccc(C(F)(F)F)c(Cl)c1 (centres unmarked) [Example I-92, N-(6-(1H-pyrazolo[3,4-d]pyrimidin-4-yl)-1,2,3,4-tetrahydronaphthalen-1-yl)-3-chloro-4-(trifluoromethyl)benzamide]
10 to 99	O=C(NC1CCCc2cc(-c3ncnc4[nH]ncc34)ccc21)c1ccc(Cl)c(Cl)c1 (centres unmarked) [Example I-93, N-(6-(1H-pyrazolo[3,4-d]pyrimidin-4-yl)-1,2,3,4-tetrahydronaphthalen-1-yl)-3,4-dichlorobenzamide]
100 to 999	Cc1nc(C(=O)NC2CCCc3cc(-c4ncnc5[nH]ncc45)ccc32)sc1C (centres unmarked) [Example I-95, N-(6-(1H-pyrazolo[3,4-d]pyrimidin-4-yl)-1,2,3,4-tetrahydronaphthalen-1-yl)-4,5-dimethylthiazole-2-carboxamide]
10 to 99	CC(C)c1csc(C(=O)NC2CCCc3cc(-c4ncnc5[nH]ncc45)ccc32)n1 (centres unmarked) [Example I-96, N-(6-(1H-pyrazolo[3,4-d]pyrimidin-4-yl)-1,2,3,4-tetrahydronaphthalen-1-yl)-4-isopropylthiazole-2-carboxamide]
10 to 99	O=C(NC1CCCc2cc(-c3ncnc4[nH]ncc34)ccc21)c1ccc(C(F)(F)F)cc1 (centres unmarked) [Example I-97, N-(6-(1H-pyrazolo[3,4-d]pyrimidin-4-yl)-1,2,3,4-tetrahydronaphthalen-1-yl)-4-(trifluoromethyl)benzamide]
< 10	CC(C)(C)c1csc(C(=O)N[C@@H]2CCCc3cc(-c4ncnc5[nH]ncc45)ccc32)n1 [Example I-99, (R)—N-(6-(1H-pyrazolo[3,4-d]pyrimidin-4-yl)-1,2,3,4-tetrahydronaphthalen-1-yl)-4-(tert-butyl)thiazole-2-carboxamide]
100 to 999	Cn1c(C(=O)NC2CCCc3cc(-c4ncnc5[nH]ncc45)ccc32)nc2ccccc21 (centres unmarked) [Example I-101, N-(6-(1H-pyrazolo[3,4-d]pyrimidin-4-yl)-1,2,3,4-tetrahydronaphthalen-1-yl)-1-methyl-1H-benzo[d]imidazole-2-carboxamide]
< 10	Cc1cc(-c2ncnc3[nH]c(-c4cnn5c4CN(C)CC5)cc23)ccc1CNC(=O)c1cnc(C(C)(C)C)s1 [Example I-102, 2-(tert-butyl)-N-(2-methyl-4-(6-(5-methyl-4,5,6,7-tetrahydropyrazolo[1,5-a]pyrazin-3-yl)-7H-pyrrolo[2,3-d]pyrimidin-4-yl)benzyl)thiazole-5-carboxamide]
100 to 999	CC(C)(C)c1nnc(C(=O)NC2CCCc3cc(-c4ncnc5[nH]ncc45)ccc32)s1 (centres unmarked) [Example I-103, N-(6-(1H-pyrazolo[3,4-d]pyrimidin-4-yl)-1,2,3,4-tetrahydronaphthalen-1-yl)-5-(tert-butyl)-1,3,4-thiadiazole-2-carboxamide]
100 to 999	CC(C)(C)C1CCC(C(=O)NC2CCCc3cc(-c4ncnc5[nH]ncc45)ccc32)CC1 (centres unmarked) [Example I-104, N-(6-(1H-pyrazolo[3,4-d]pyrimidin-4-yl)-1,2,3,4-tetrahydronaphthalen-1-yl)-4-(tert-butyl)cyclohexanecarboxamide]
100 to 999	O=C(N[C@@H]1CCCc2cc(-c3ncnc4[nH]ncc34)ccc21)[C@H]1CC[C@H](C(F)(F)F)CC1 [Example I-105, trans-N—((R)-6-(1H-pyrazolo[3,4-d]pyrimidin-4-yl)-1,2,3,4-tetrahydronaphthalen-1-yl)-4-(trifluoromethyl)cyclohexanecarboxamide]
